Like-named read-outs stand apart in the source and are kept apart here.
Assays:
5-HT2A = 5-HT2A (Homo sapiens, UniProt P28223); experiment: FLIPR Ca2+ flux agonist assay at 5-HT2A; format: cell-based; parameters: host or cells: HEK293; details: for 5-HT2A % Act @ Max Dose: HEK293, max dose
Experimental: (§1) A solution of 250 mM probenecid in 1 mL FLIPR assay buffer was prepared fresh. This was combined with a fluorescent dye (Fluo-4 Direct™) to make a final assay concentration of 2.5 mM. […] The fluorescent dye was then added to the assay plate along with assay buffer to a final volume of 40 μL. The cell plate was incubated for 50 min at 37° C. and 5% CO2 and placed into the FLIPR Tetra along with the compound plate. 10 μL of references and compounds were then transferred from the compound plate into the cell plate and the fluorescent signal was read.

[1] = system: monoamine oxidase A and B (MAO-A and MAO-B); experiment: Stability in the presence of monoamine oxidases (human liver mitochondria preparation); parameters: half-life / microsomal CLint: dose or concentration left out as unconfirmed; details: for stability in the presence of MAO (in words): human liver mitochondria preparation; for Remaining (t = 60 min) / half-life / microsomal CLint: human liver mitochondria; for half-life / microsomal CLint: human, pH 7.4
Experimental: Liver Mitochondria Incubations. Human liver mitochondria (Xenotech H0610.M) were used.

5-HT2B = molecular target: T1, 5-HT2B (Homo sapiens, UniProt P41595); experiment: FLIPR Ca2+ flux agonist assay at 5-HT2B; format: cell-based; details: for 5-HT2B % Act @ Max Dose: Ca2+ flux, HEK293, max dose
T1 construct: host or cells: HEK293
T1 sequence (P41595 whole entry, species assumed): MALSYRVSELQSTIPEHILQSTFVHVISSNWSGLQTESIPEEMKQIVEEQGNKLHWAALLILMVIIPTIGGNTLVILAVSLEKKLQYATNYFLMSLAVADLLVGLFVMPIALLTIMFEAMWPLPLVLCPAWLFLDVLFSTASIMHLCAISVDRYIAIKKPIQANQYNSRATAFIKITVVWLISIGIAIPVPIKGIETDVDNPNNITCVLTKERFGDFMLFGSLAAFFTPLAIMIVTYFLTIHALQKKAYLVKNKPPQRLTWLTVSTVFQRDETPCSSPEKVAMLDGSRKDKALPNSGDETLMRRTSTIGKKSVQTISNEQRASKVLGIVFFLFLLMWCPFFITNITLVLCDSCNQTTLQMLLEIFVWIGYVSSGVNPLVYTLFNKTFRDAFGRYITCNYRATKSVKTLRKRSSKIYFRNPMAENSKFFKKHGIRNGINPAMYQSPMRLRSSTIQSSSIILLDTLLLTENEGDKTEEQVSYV
Experimental: as §1

[2] = Stability in mouse brain homogenate; format: in vitro ADME, male CD-1 mice; details: mouse brain homogenate, 1 μM, 37° C.; for half-life at 1 µM: male, CD-1
Experimental: Disclosed compounds were tested for stability in mouse brain homogenate (Table 7). There was widely variable stability among the test compounds under the conditions of the experiment.
(§2) Mouse Brain Homogenate Stability. Frozen mouse brain homogenate (pooled from male CD-1 mice, BioreclamationIVT, MSE00BRAINMZA) was thawed in a water bath at 37° C. immediately prior to use. Positive controls and test compounds (final concentration in incubation medium=1 μM for test compounds and 2 μM for controls, all with 2% DMSO) were incubated in duplicate for each time point (0, 10, 30, 60, and 120 min) in the mouse brain homogenate at a total reaction volume of 100 μL at 37° C. At the end of each incubation period, reactions were immediately quenched with 400 μL of acetonitrile containing internal standard (200 ng/mL tolbutamine and 200 ng/mL labetalol) and mixed thoroughly. Plates were then sealed, shaken for 20 min, and centrifuged at 4,000 rpm and 4° C. for 20 min. Aliquots of 50 μL of each supernatant were diluted into 100 μL of water and the mixtures were then shaken again for 10 min.

[3] = Stability in rat brain homogenate; format: in vitro ADME, male Sprague Dawley rats; details: rat brain homogenate, 1 μM, 37° C.; for half-life at 1 µM: male, Sprague Dawley
Experimental: Disclosed compounds were tested for stability in rat brain homogenate (Table 8). There was widely variable stability among the test compounds under the conditions of the experiment.
as §2, with “Rat” for “Mouse”, “rat” for “mouse”, “Sprague Dawley rats,” for “CD-1 mice,”, “RAT00BRAINMZA)” for “MSE00BRAINMZA)”

[4] = Metabolic stability in human liver microsomes (HLM); parameters: microsomal CLint / half-life: dose or concentration left out as unconfirmed; details: both, human, pooled human liver microsomes, pH 7.4
5-HT1A = molecular target: T2, 5-HT1A (Homo sapiens, UniProt P08908); experiment: FLIPR Ca2+ flux agonist assay at 5-HT1A; format: cell-based; details: for 5-HT1A % Act @ Max Dose: Ca2+ flux, CHO cells
T2 construct: host or cells: CHO cells
T2 sequence (P08908 1-422): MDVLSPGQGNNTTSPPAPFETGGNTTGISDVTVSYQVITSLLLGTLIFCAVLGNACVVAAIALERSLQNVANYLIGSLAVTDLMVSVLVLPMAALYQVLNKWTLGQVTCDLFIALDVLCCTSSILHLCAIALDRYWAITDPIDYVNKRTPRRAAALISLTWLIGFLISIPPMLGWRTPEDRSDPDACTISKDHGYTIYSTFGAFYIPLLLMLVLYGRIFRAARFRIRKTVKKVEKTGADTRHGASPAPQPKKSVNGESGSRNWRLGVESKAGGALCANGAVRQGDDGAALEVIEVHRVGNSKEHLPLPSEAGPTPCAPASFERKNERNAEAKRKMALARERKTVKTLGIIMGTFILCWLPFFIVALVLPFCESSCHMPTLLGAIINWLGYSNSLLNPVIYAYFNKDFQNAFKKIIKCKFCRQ
Experimental: as §1

[5] = Ca2+ flux, HEK293, read-out: 5-HT2A EC50

Chain of 5-HT2A (P28223 whole entry): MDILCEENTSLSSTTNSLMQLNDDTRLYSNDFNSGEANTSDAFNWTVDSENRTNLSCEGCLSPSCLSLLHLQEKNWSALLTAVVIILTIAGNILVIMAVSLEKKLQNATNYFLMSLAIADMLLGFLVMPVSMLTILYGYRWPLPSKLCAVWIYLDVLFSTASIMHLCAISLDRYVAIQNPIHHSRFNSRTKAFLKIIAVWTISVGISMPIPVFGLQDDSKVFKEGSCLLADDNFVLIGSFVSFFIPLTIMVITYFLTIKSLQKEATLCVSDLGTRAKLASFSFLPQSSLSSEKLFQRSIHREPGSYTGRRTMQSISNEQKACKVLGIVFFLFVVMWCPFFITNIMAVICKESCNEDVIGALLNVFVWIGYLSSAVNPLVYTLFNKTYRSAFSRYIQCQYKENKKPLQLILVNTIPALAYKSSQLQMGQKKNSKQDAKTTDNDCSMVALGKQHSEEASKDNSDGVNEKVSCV

Compound | EC50 (5-HT2A; [5]) [nM] | stability in the presence of MAO (in words) [1] | Remaining (t = 60 min) [1] [%] | half-life [1] [min] | microsomal CLint [1] [µL/min/mg] | EC50 (5-HT2B) [nM] | 5-HT2B % Act @ Max Dose (5-HT2B) [%] | half-life at 1 µM [2] [min] | % Compound Remaining (after 120 min) [2] [%] | half-life at 1 µM [3] [min] | % Compound Remaining (after 120 min) [3] [%] | half-life [4] [min] | microsomal CLint [4] [µL/min/mg] | EC50 (5-HT1A) [nM] | 5-HT1A % Act @ Max Dose (5-HT1A) [%] | EC50 (5-HT2A) [nM] | 5-HT2A % Act @ Max Dose (5-HT2A; Ca2+ flux) [%]
NCCc1c[nH]c2cc(F)cc(O)c12 [Compound 31, 3-(2-aminoethyl)-6-fluoro-1H-indol-4-ol] | 6.36 | intermediate stability | 24.6 | 30.1 | 76.8 | 5.07 | 99.12 | 20.3 | 1.6 | 11.4 | 0 | 16.9 | 81.8 | 12500 | 18.3 | – | –
NCCc1c[nH]c2c(F)ccc(O)c12 [Compound 32, 3-(2-aminoethyl)-7-fluoro-1H-indol-4-ol] | 7.3 | intermediate stability | 24.0 | 28.4 | 81.4 | 30.3 | 66.55 | 29 | 4.8 | 9.5 | 0 | 16 | 86.5 | > 100000 | 38.64 | – | –
CNCCc1c[nH]c2cc(F)cc(O)c12 [Compound 33, 6-fluoro-3-(2-(methylamino)ethyl)-1H-indol-4-ol] | 5.8 | – | 14.3 | 20.2 | 114 | 28.5 | 31.76 | 16 | 0.6 | 9.1 | 0.4 | 10.1 | 138 | > 100000 | 3.51 | – | –
CNCCc1c[nH]c2c(F)ccc(O)c12 [Compound 34, 7-fluoro-3-(2-(methylamino)ethyl)-1H-indol-4-ol] | – | – | 6.4 | 15 | 154 | > 10000 | 8.09 | 21.7 | 1.6 | 3.6 | 0 | 6.6 | 209 | > 100000 | 36.72 | 16.2 | 77.43
CCCNCCc1c[nH]c2ccc(F)c(O)c12 [Compound 36, 5-fluoro-3-(2-(propylamino)ethyl)-1H-indol-4-ol] | – | – | 0.9 | 8.5 | 272 | 26.2 | 44.90 | 108 | 46.2 | 31 | 7.1 | 49.9 | 27.8 | > 100000 | 15.31 | 12.1 | 71.78
CCNCCc1c[nH]c2ccc(C)c(O)c12 [Compound 37, 3-(2-(ethylamino)ethyl)-5-methyl-1H-indol-4-ol] | – | – | 65.1 | 88.7 | 26.1 | 274 | 16.28 | 69.9 | 31.3 | 14.1 | 0.2 | 86.8 | 16 | 6950 | 64.6 | 56.5 | 91.0
CCNCCc1c[nH]c2ccc(Cl)c(O)c12 [Compound 38, 5-chloro-3-(2-(ethylamino)ethyl)-1H-indol-4-ol] | – | intermediate stability | 22.6 | 26.1 | 88.6 | 42.4 | 43.30 | 17.5 | 0.9 | 9.2 | 0 | 13.2 | 105 | 1840 | 77.96 | 10.5 | 103.70
CNCCc1c[nH]c2cc(C)cc(O)c12 [Compound 39, 6-methyl-3-(2-(methylamino)ethyl)-1H-indol-4-ol] | – | – | 13.5 | 17.8 | 130 | > 10000 | 10.04 | 15.5 | 0.4 | 6.3 | 0.1 | 9.9 | 140 | > 100000 | 4.4 | 78.4 | 76.43

Source: US20260234107A1, “TRYPTAMINES AND METHODS OF TREATING MOOD DISORDERS” (priority 2022, published 2026)
